Patent US11541067B2, “HMO compositions and methods for reducing detrimental proteolytic metabolites” (Glycom A/S, priority 2017, dated 2023)

Tested on: microbial metabolites
Assay: M-SHIME (M-TripleSHIME) in vitro gastrointestinal model: bacterial metabolite analysis
Format: cell-based, human
Details: proximal (PC) and distal (DC) colon reactor; FIG. 1 in mg/l, means of three weekly samples
Text: The impact of the HMOs on microbiota and bacterial metabolites was investigated in the M-SHIME® (M-TripleSHlME®) in vitro gastrointestinal model (Prodigest). The typical reactor setup of the M-TripleSHIME® consisted of a succession of four reactors simulating the different parts of the human gastrointestinal tract. The first two reactors were of the fill-and-draw principle to simulate different steps in food uptake and digestion, with peristaltic pumps adding a defined amount of SHIME feed (140 mL 3×/day) and pancreatic and bile liquid (60 ml 3×/day), respectively, to the stomach and small intestine compartment and emptying the respective reactors after specified intervals. The last two compartments were continuously stirred reactors with constant volume and pH control. […]
The M-TripleSHIME® was run in four stages: • 1. […] The baseline microbial community composition and activity in the different reactors was determined by analysis of samples and was used as a reference. • 3. […]
Sample of the liquids in each reactor were collected regularly (three times in a week, on day 1, day 3 and day 5) and were analysed for microbial metabolites and the composition of the resident microbial community. In particular, the bifidobacteria composition was analysed using ITS profiling.

## CC(=O)N[C@H]1[C@H](O[C@H]2[C@@H](O)[C@@H](CO)O[C@@H](O[C@H]3[C@H](O)[C@@H](O)C(O)O[C@@H]3CO)[C@@H]2O)O[C@H](CO)[C@@H](O[C@@H]2O[C@H](CO)[C@H](O)[C@H](O)[C@H]2O)[C@@H]1O (mixture of isomers) [LNnT, lacto-N-neotetraose]
  ammonia production compared with the effect of 2′-FL (FIG. 1): similar
  branched SOFA production compared with the effect of 2′-FL (FIG. 1): similar
